Source: the supplement of paper PMC13207355

How the values were obtained:
Conditions in all cases: exposure time: 72 h
[1] = system: E21 (patient-derived glioblastoma stem cells of mesenchymal subtype); assay: surviving fraction (nuclei count normalised to DMSO); higher = more cells surviving (less toxic)
[2] = system: E34 (patient-derived glioblastoma stem cells of proneural subtype); assay: as above
[3] = system: E28 (patient-derived glioblastoma stem cells of classical subtype); assay: as above
[4] = system: E57 (patient-derived glioblastoma stem cells of mesenchymal subtype); assay: as above
[5] = system: FT3469 (normal neural stem cell line); assay: as above
[6] = system: E13 (patient-derived glioblastoma stem cells of classical subtype); assay: as above
[7] = system: E31 (patient-derived glioblastoma stem cells of proneural subtype); assay: as above
[8] = system: E21; assay: phenotypic distance (Euclidean, principal components) from DMSO controls (arbitrary units); higher = stronger morphological change
[9] = system: E34; assay: as above
[10] = system: E28; assay: as above
[11] = system: E57; assay: as above
[12] = system: FT3469; assay: as above
[13] = system: E13; assay: as above
[14] = system: E31; assay: as above
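For phenotypic distance (Euclidean, principal components) from DMSO controls in this document: cell Painting imaging in 384-well plates, CellProfiler features reduced to at least 20 principal components, Euclidean distance versus same-plate DMSO vehicle wells (0.1% v/v), median over six images per well.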
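For surviving fraction (nuclei count normalised to DMSO) in this document: nuclei counted by high-content imaging of Hoechst-stained cells in laminin-coated 384-well plates, relative to 0.1% DMSO vehicle wells, with staurosporine as cell-death control.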

C/C=C1\NC(=O)[C@H]2CSSCC/C=C/[C@H](CC(=O)N[C@H](C(C)C)C(=O)N2)OC(=O)[C@H](C(C)C)NC1=O [Romidepsin]
surviving fraction ([1]; 4.1 nM): 0.102 | surviving fraction ([1]; 12.3 nM): 0.0766 | surviving fraction ([1]; 37 nM): 0.0713 | surviving fraction ([1]; 111.1 nM): 0.0809 | surviving fraction ([1]; 333.3 nM): 0.049 | surviving fraction ([1]; 1000 nM): 0.00532 | surviving fraction ([1]; 3000 nM): 0 | surviving fraction ([2]; 4.1 nM): 0.302 | surviving fraction ([2]; 12.3 nM): 0.292 | surviving fraction ([2]; 37 nM): 0.271 | surviving fraction ([2]; 111.1 nM): 0.359 | surviving fraction ([2]; 333.3 nM): 0.286 | surviving fraction ([2]; 1000 nM): 0.245 | surviving fraction ([2]; 3000 nM): 0.1 | surviving fraction ([3]; 4.1 nM): 0.157 | surviving fraction ([3]; 12.3 nM): 0.153 | surviving fraction ([3]; 37 nM): 0.138 | surviving fraction ([3]; 111.1 nM): 0.194 | surviving fraction ([3]; 333.3 nM): 0.17 | surviving fraction ([3]; 1000 nM): 0.17 | surviving fraction ([3]; 3000 nM): 0.0691 | surviving fraction ([4]; 4.1 nM): 0.062 | surviving fraction ([4]; 12.3 nM): 0.0535 | surviving fraction ([4]; 37 nM): 0.0389 | surviving fraction ([4]; 111.1 nM): 0.0558 | surviving fraction ([4]; 333.3 nM): 0.0428 | surviving fraction ([4]; 1000 nM): 0.0349 | surviving fraction ([4]; 3000 nM): 0.00732 | surviving fraction ([5]; 4.1 nM): 0.237 | surviving fraction ([5]; 12.3 nM): 0.267 | surviving fraction ([5]; 37 nM): 0.31 | surviving fraction ([5]; 111.1 nM): 0.274 | surviving fraction ([5]; 333.3 nM): 0.321 | surviving fraction ([5]; 1000 nM): 0.123 | surviving fraction ([5]; 3000 nM): 0.0672 | surviving fraction ([6]; 4.1 nM): 0.219 | surviving fraction ([6]; 12.3 nM): 0.212 | surviving fraction ([6]; 37 nM): 0.191 | surviving fraction ([6]; 111.1 nM): 0.211 | surviving fraction ([6]; 333.3 nM): 0.169 | surviving fraction ([6]; 1000 nM): 0.0814 | surviving fraction ([6]; 3000 nM): 0.00947 | surviving fraction ([7]; 4.1 nM): 0.00149 | surviving fraction ([7]; 12.3 nM): 0.0134 | surviving fraction ([7]; 37 nM): 0.00446 | surviving fraction ([7]; 111.1 nM): 0.00892 | surviving fraction ([7]; 333.3 nM): 0.00594 | surviving fraction ([7]; 1000 nM): 0.00446 | surviving fraction ([7]; 3000 nM): 0.00892 | phenotypic distance ([8]; 4.1 nM): 6.02 | phenotypic distance ([8]; 12.3 nM): 7.55 | phenotypic distance ([8]; 37 nM): 7.46 | phenotypic distance ([8]; 111.1 nM): 6.75 | phenotypic distance ([8]; 333.3 nM): 7.68 | phenotypic distance ([8]; 1000 nM): 9.06 | phenotypic distance ([8]; 3000 nM): 20.2 | phenotypic distance ([9]; 4.1 nM): 8.64 | phenotypic distance ([9]; 12.3 nM): 7.96 | phenotypic distance ([9]; 37 nM): 9.03 | phenotypic distance ([9]; 111.1 nM): 8.78 | phenotypic distance ([9]; 333.3 nM): 7.71 | phenotypic distance ([9]; 1000 nM): 8.57 | phenotypic distance ([9]; 3000 nM): 7.26 | phenotypic distance ([10]; 4.1 nM): 4.95 | phenotypic distance ([10]; 12.3 nM): 5.55 | phenotypic distance ([10]; 37 nM): 5.4 | phenotypic distance ([10]; 111.1 nM): 4.65 | phenotypic distance ([10]; 333.3 nM): 5.39 | phenotypic distance ([10]; 1000 nM): 5.54 | phenotypic distance ([10]; 3000 nM): 6.46 | phenotypic distance ([11]; 4.1 nM): 8.58 | phenotypic distance ([11]; 12.3 nM): 7.79 | phenotypic distance ([11]; 37 nM): 9.5 | phenotypic distance ([11]; 111.1 nM): 9.16 | phenotypic distance ([11]; 333.3 nM): 8.37 | phenotypic distance ([11]; 1000 nM): 9.9 | phenotypic distance ([11]; 3000 nM): 11.1 | phenotypic distance ([12]; 4.1 nM): 3.71 | phenotypic distance ([12]; 12.3 nM): 2.82 | phenotypic distance ([12]; 37 nM): 3.47 | phenotypic distance ([12]; 111.1 nM): 2.86 | phenotypic distance ([12]; 333.3 nM): 3.77 | phenotypic distance ([12]; 1000 nM): 5.6 | phenotypic distance ([12]; 3000 nM): 8.06 | phenotypic distance ([13]; 4.1 nM): 4.99 | phenotypic distance ([13]; 12.3 nM): 4.79 | phenotypic distance ([13]; 37 nM): 4.79 | phenotypic distance ([13]; 111.1 nM): 5.03 | phenotypic distance ([13]; 333.3 nM): 4.51 | phenotypic distance ([13]; 1000 nM): 6.31 | phenotypic distance ([13]; 3000 nM): 8.31 | phenotypic distance ([14]; 4.1 nM): 12.3 | phenotypic distance ([14]; 12.3 nM): 10.3 | phenotypic distance ([14]; 37 nM): 11 | phenotypic distance ([14]; 111.1 nM): 8.91 | phenotypic distance ([14]; 333.3 nM): 7.47 | phenotypic distance ([14]; 1000 nM): 18.1 | phenotypic distance ([14]; 3000 nM): 7.62
